Source: patent publication US12577234B2, “Antagonists of the muscarinic acetylcholine receptor M4” (Vanderbilt University, priority 2017, dated 2026)

Biological target: T1, human mAChR M4 (Homo sapiens, UniProt P08173)
T1 construct: expressed in transfected cells; host or cells: CHO-K1 (ATCC), stably co-expressing chimeric G protein Gqi5
T1 sequence (P08173 1-479): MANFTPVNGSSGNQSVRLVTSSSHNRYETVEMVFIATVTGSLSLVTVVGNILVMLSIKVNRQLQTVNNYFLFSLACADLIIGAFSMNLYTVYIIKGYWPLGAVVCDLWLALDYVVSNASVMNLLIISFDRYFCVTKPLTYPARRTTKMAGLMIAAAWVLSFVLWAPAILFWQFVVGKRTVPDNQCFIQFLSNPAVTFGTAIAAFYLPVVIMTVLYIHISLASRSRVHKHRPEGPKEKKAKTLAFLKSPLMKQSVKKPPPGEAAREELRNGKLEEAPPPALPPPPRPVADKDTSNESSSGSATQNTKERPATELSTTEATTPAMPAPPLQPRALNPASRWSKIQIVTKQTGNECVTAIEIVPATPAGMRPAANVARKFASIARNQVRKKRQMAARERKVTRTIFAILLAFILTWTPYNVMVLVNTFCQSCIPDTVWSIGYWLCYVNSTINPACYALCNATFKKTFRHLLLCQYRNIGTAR
Assay: mAChR M4 cell-based functional assay (calcium mobilization, EC80 acetylcholine), human M4
Details: for Emin: human M4, % ACh maximum at 30 μM
Method in brief: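 CHO-K1 cells stably expressing human M4 with chimeric Gqi5; intracellular calcium rise read on FDSS as fluorescence static ratio at 1 Hz. Compounds in 10-point 1:3 dilution series; IC50 taken as concentration-dependent decrease of the EC80 acetylcholine response, four-parameter logistic fit.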

[1] = Table 10, M4/Gqi5/CHO-K1 cells, decrease of EC80 acetylcholine response
[2] = Table 9, M4/Gqi5/CHO-K1 cells, decrease of EC80 acetylcholine response

| Human M4 Emin (Table 10) [%] | IC50 [1] [µM] | Emin (Table 9) [%] | IC50 (Table 9, μM) [µM] | IC50 [2] [µM] | Compound |
| --- | --- | --- | --- | --- | --- |
| 24 | 0.0855 |  |  |  | FC(F)(F)c1ccc(-c2ccc(N[C@H]3C[C@@H]4CN(CC5CCOCC5)C[C@@H]4C3)nn2)cn1 [Compound 211, (3aR,5s,6aS)-2-(tetrahydropyran-4-ylmethyl)-N-[6-[6-(trifluoromethyl)-3-pyridyl]pyridazin-3-yl]-3,3a,4,5,6,6a-hexahydro-1H-cyclopenta[c]pyrrol-5-amine] |
|  |  | 58.2 | > 10 |  | [(3aR,5r,6aS)-5-[6-(1,3-dimethylpyrazol-4-yl)pyridazin-3-yl]oxy-3,3a,4,5,6,6a-hexahydro-1H-cyclopenta[c]pyrrol-2-yl]-(1-adamantyl)methanone [Compound 60] |
| 5 | 0.287 |  |  |  | Cc1cnn(C)c1-c1ccc(O[C@H]2C[C@@H]3CN(CCC(C)(C)C)C[C@@H]3C2)nn1 [Compound 135, (3aR,5s,6aS)-2-(3,3-dimethylbutyl)-5-[6-(2,4-dimethylpyrazol-3-yl)pyridazin-3-yl]oxy-3,3a,4,5,6,6a-hexahydro-1H-cyclopenta[c]pyrrole] |
|  |  | 2.25 |  | 0.694 | Cc1cccnc1CN1C[C@H]2CC(COc3ccc(-c4cc(F)ccc4Cl)nn3)C[C@H]2C1 (stereo partly drawn) [Compound 118, (3aR,6aS)-5-[[6-(2-chloro-5-fluoro-phenyl)pyridazin-3-yl]oxymethyl]-2-[(3-methyl-2-pyridyl)methyl]-3,3a,4,5,6,6a-hexahydro-1H-cyclopenta[c]pyrrole] |
|  |  |  |  | 0.004 | Cc1nn(C)cc1-c1ccc(N[C@H]2C[C@@H]3CN(CCc4ccccc4)C[C@@H]3C2)nn1 [compound 12] |
|  |  | 3.86 |  | 0.408 | Cc1cnn(C)c1-c1ccc(NC(=O)C2CC3CN(CC4CC5C=CC4C5)CC3C2)nn1 (centres unmarked) [Compound 77, 2-(5-bicyclo[2.2.1]hept-2-enylmethyl)-N-[6-(2,4-dimethylpyrazol-3-yl)pyridazin-3-yl]-3,3a,4,5,6,6a-hexahydro-1H-cyclopenta[c]pyrrole-5-carboxamide] |
|  |  | 6.60 |  | 2.54 | Cc1nn(C)cc1-c1ccc(OCC2C[C@@H]3CN(Cc4ccccc4F)C[C@@H]3C2)nn1 (stereo partly drawn) [Compound 101, (3aR,6aS)-5-[[6-(1,3-dimethylpyrazol-4-yl)pyridazin-3-yl]oxymethyl]-2-[(2-fluorophenyl)methyl]-3,3a,4,5,6,6a-hexahydro-1H-cyclopenta[c]pyrrole] |

The next lines start with the compound.

| Compound | Human M4 Emin (Table 10) [%] | IC50 [1] [µM] | Emin (Table 9) [%] | IC50 (Table 9, μM) [µM] | IC50 [2] [µM] |
| --- | --- | --- | --- | --- | --- |
| Cc1nn(C)cc1-c1ccc(N[C@H]2C[C@@H]3CN(CCC(C)(C)C)C[C@@H]3C2)nc1 [Compound 149, (3aR,5s,6aS)-2-(3,3-dimethylbutyl)-N-[5-(1,3-dimethylpyrazol-4-yl)-2-pyridyl]-3,3a,4,5,6,6a-hexahydro-1H-cyclopenta[c]pyrrol-5-amine] | 4 | 0.127 |  |  |  |
| Cc1noc(C)c1-c1ccc(N[C@H]2C[C@@H]3CN(CCC(C)(C)C)C[C@@H]3C2)nn1 [Compound 142, (3aR,5s,6aS)-2-(3,3-dimethylbutyl)-N-[6-(3,5-dimethylisoxazol-4-yl)pyridazin-3-yl]-3,3a,4,5,6,6a-hexahydro-1H-cyclopenta[c]pyrrol-5-amine] | 6 | 0.00182 |  |  |  |
| (3aR,6aS)-2-(5-bicyclo[2.2.2]oct-2-enylmethyl)-5-[[6-(1,3-dimethylpyrazol-4-yl)pyridazin-3-yl]oxymethyl]-3,3a,4,5,6,6a-hexahydro-1H-cyclopenta[clpyrrole [Compound 94] |  |  | 3.67 |  | 0.0426 |
| CC(=O)Nc1ccc(-c2ccc(O[C@H]3C[C@@H]4CN(Cc5ccc(F)cc5)C[C@@H]4C3)nn2)cc1 [Compound 131, N-[4-[6-[[(3aR,5s,6aS)-2-[(4-fluorophenyl)methyl]-3,3a,4,5,6,6a-hexahydro-1H-cyclopenta[c]pyrrol-5-yl]oxy]pyridazin-3-yl]phenyl]acetamide] | 3 | 0.977 |  |  |  |
| F[C@@H]1CCN(c2ccc(N[C@H]3C[C@@H]4CN(CC5CCOCC5)C[C@@H]4C3)nn2)C1 [Compound 194, (3aR,5s,6aS)-N-[6-[(3S)-3-fluoropyrrolidin-1-yl]pyridazin-3-yl]-2-(tetrahydropyran-4-ylmethyl)-3,3a,4,5,6,6a-hexahydro-1H-cyclopenta[c]pyrrol-5-amine] | 5 | 0.0125 |  |  |  |
| Cc1cnn(C)c1-c1ccc(OCC2C[C@@H]3CN(CC4CCOCC4)C[C@@H]3C2)nn1 (stereo partly drawn) [Compound 84, (3aR,6aS)-5-[[6-(2,4-dimethylpyrazol-3-yl)pyridazin-3-yl]oxymethyl]-2-(tetrahydropyran-4-ylmethyl)-3,3a,4,5,6,6a-hexahydro-1H-cyclopenta[c]pyrrole] |  |  | 10.9 |  | 3.09 |
| Cc1nn(C)cc1-c1ccc(N[C@H]2C[C@@H]3CN(CC4CC5C=CC4C5)C[C@@H]3C2)nc1 (stereo partly drawn) [Compound 151, (3aR,5s,6aS)-2-(5-bicyclo[2.2.1]hept-2-enylmethyl)-N-[5-(1,3-dimethylpyrazol-4-yl)-2-pyridyl]-3,3a,4,5,6,6a-hexahydro-1H-cyclopenta[c]pyrrol-5-amine] | 3 | 0.0773 |  |  |  |
| Cc1cnn(C)c1-c1ccc(OCC2C[C@@H]3CN(CC4CCCCC4)C[C@@H]3C2)nn1 (stereo partly drawn) [Compound 83, (3aR,6aS)-2-(cyclohexylmethyl)-5-[[6-(2,4-dimethylpyrazol-3-yl)pyridazin-3-yl]oxymethyl]-3,3a,4,5,6,6a-hexahydro-1H-cyclopenta[c]pyrrole] |  |  | 3.93 |  | 0.222 |
| Cc1cnn(C)c1-c1ccc(OCC2C[C@@H]3CN(CC45CC6CC(CC(C6)C4)C5)C[C@@H]3C2)nn1 (stereo partly drawn) [Compound 79, (3sR,6aS)-2-(1-adamantylmethyl)-5-[[6-(2,4-dimethylpyrazol-3-yl)pyridazin-3-yl]oxymethyl]-3,3a,4,5,6,6a-hexahydro-1H-cyclopenta[c]pyrrole] |  |  | 3.76 |  | 0.119 |
| Cc1ccc(-c2ccc(N[C@H]3C[C@@H]4CN(CC5CCOCC5)C[C@@H]4C3)nn2)cc1 [Compound 198, (3aR,5s,6aS)-N-[6-(p-tolyl)pyridazin-3-yl]-2-(tetrahydropyran-4-ylmethyl)-3,3a,4,5,6,6a-hexahydro-1H-cyclopenta[c]pyrrol-5-amine] | 6 | 0.00399 |  |  |  |
| COc1ccc(F)cc1-c1ccc(N[C@H]2C[C@@H]3CN(CC4CCOCC4)C[C@@H]3C2)nn1 [Compound 212, (3aR,5s,6aS)-N-[6-(5-fluoro-2-methoxy-phenyl)pyridazin-3-yl]-2-(tetrahydropyran-4-ylmethyl)-3,3a,4,5,6,6a-hexahydro-1H-cyclopenta[c]pyrrol-5-amine] | 5 | 0.000486 |  |  |  |
| Cc1cccnc1CN1C[C@H]2CC(CCNc3ccc(-c4c(C)cnn4C)nn3)C[C@H]2C1 (stereo partly drawn) [Compound 124, N-[2-[(3aR,6aS)-2-[(3-methyl-2-pyridyl)methyl]-3,3a,4,5,6,6a-hexahydro-1H-cyclopenta[c]pyrrol-5-yl]ethyl]-6-(2,4-dimethylpyrazol-3-yl)pyridazin-3-amine] |  |  | 3.25 |  | 0.0206 |
| Fc1ccc(Cl)c(-c2ccc(OCC3C[C@@H]4CN(CC5CCOCC5)C[C@@H]4C3)nn2)c1 (stereo partly drawn) [Compound 112, (3aR,6aS)-5-[[6-(2-chloro-5-fluoro-phenyl)pyridazin-3-yl]oxymethyl]-2-(tetrahydropyran-4-ylmethyl)-3,3a,4,5,6,6a-hexahydro-1H-cyclopenta[c]pyrrole] |  |  | 4.59 |  | 0.609 |
| Cc1nn(C)cc1-c1ccc(N[C@@H]2C[C@@H]3CN(CCC(C)(C)C)C[C@@H]3C2)c(F)c1F [Compound 41, (3aR,5r,6aS)-2-(3,3-Dimethylbutyl)-N-[4-(1,3-dimethylpyrazol-4-yl)-2,3-difluoro-phenyl]-3,3a,4,5,6,6a-hexahydro-1H-cyclopenta[c]pyrrol-5-amine] |  |  | 4.62 |  | 0.433 |
| Cc1nn(C)cc1-c1ccc(O[C@@H]2C[C@@H]3CN(CC4CC5C=CC4C5)C[C@@H]3C2)nn1 (stereo partly drawn) [Compound 47, (3aR,5r,6aS)-2-(5-bicyclo[2.2.1]hept-2-enylmethyl)-5-[6-(1,3-dimethylpyrazol-4-yl)pyridazin-3-yl]oxy-3,3a,4,5,6,6a-hexahydro-1H-cyclopenta[c]pyrrole] |  |  | 3.08 |  | 0.0945 |
| CC(=O)Nc1ccc(-c2ccc(O[C@H]3C[C@@H]4CN(Cc5ncccc5C)C[C@@H]4C3)nn2)cc1 [Compound 133, N-[4-[6-[[(3aR,5s,6aS)-2-[(3-methyl-2-pyridyl)methyl]-3,3a,4,5,6,6a-hexahydro-1H-cyclopenta[c]pyrrol-5-yl]oxy]pyridazin-3-yl]phenyl]acetamide] | 5 | 1.07 |  |  |  |
| Cc1nn(C)cc1-c1ccc(OCC2C[C@@H]3CN(CC4CCCCC4)C[C@@H]3C2)nn1 (stereo partly drawn) [Compound 97, (3aR,6aS)-2-(cyclohexylmethyl)-5-[[6-(1,3-dimethylpyrazol-4-yl)pyridazin-3-yl]oxymethyl]-3,3a,4,5,6,6a-hexahydro-1H-cyclopenta[c]pyrrole] |  |  | 4.44 |  | 0.167 |
